Experimental data taken from paper PMC11995724, “Antibiotic target discovery by integrated phenotypic and activity-based profiling of electrophilic fragments” (Cell chemical biology, 2025).

Experiment: in vitro
Conditions: human, hek293t cells

Row | SMILES | viability at 48 h, 25 µM [%]
1 | O=C(CCl)Nc1ccc(Cl)cc1F [4-E03, 2-chloro-N-(4-chloro-2-fluorophenyl)acetamide] | 0.433
2 | O=C(CCl)Nc1cccc(S(=O)(=O)NC2=NCCCCC2)c1 [4-D08, N-{3-[(azepan-2-ylidene)sulfamoyl]phenyl}-2-chloroacetamide] | 1.32
3 | C=CC(=O)N(CC)CC(=O)N1CCN(c2ccsc2C#N)CC1 [3-L05, N-{2-[4-(2-cyanothiophen-3-yl)piperazin-1-yl]-2-oxoethyl}-N-ethylprop-2-enamide] | 62.6
4 | COc1cc(C=C(C#N)C(=O)Nc2nccs2)cc(OC)c1O [8-M19, 2-cyano-3-(4-hydroxy-3,5-dimethoxyphenyl)-N-(1,3-thiazol-2-yl)prop-2-enamide] | 86.3
5 | CC(C)NC(=O)C(C#N)=Cc1c(Cl)cccc1Cl [9-E13, 2-cyano-3-(2,6-dichlorophenyl)-N-(propan-2-yl)prop-2-enamide] | 87
6 | N#CC(=Cc1cc(Cl)ccc1O)C(=O)Nc1cccc2ccccc12 [9-P17, 3-(5-chloro-2-hydroxyphenyl)-2-cyano-N-(naphthalen-1-yl)prop-2-enamide] | 130
7 | COC(=O)c1sccc1N1C(=O)C=CC1=O [10-A07, methyl 3-(2,5-dioxo-2,5-dihydro-1H-pyrrol-1-yl)thiophene-2-carboxylate] | 16.6
8 | Cn1cc(CN(C(=O)CCl)c2ccc(F)cc2)cn1 [6-D08, 2-chloro-N-(4-fluorophenyl)-N-[(1-methyl-1H-pyrazol-4-yl)methyl]acetamide] | 2.1
9 | C=CC(=O)NCCC(=O)N1CCN(c2ccccc2Cl)CC1 [3-J22, N-{3-[4-(2-chlorophenyl)piperazin-1-yl]-3-oxopropyl}prop-2-enamide] | 88.6
10 | C=CC(=O)N1CCC(NC(=O)Nc2ccccc2OC)CC1 [1-K13, 3-(2-methoxyphenyl)-1-[1-(prop-2-enoyl)piperidin-4-yl]urea] | 106
11 | C=CC(=O)N1CCC(Cc2nccs2)C1 (centres unmarked) [3-O16, 1-{3-[(1,3-thiazol-2-yl)methyl]pyrrolidin-1-yl}prop-2-en-1-one] | 98.7
12 | Cc1nn(C)c(C)c1C=C(C#N)C(=O)Nc1ccccc1Cl [9-F11, N-(2-chlorophenyl)-2-cyano-3-(1,3,5-trimethyl-1H-pyrazol-4-yl)prop-2-enamide] | 110
13 | Cc1ccc(C(=O)CCl)o1 [10-A09, 2-chloro-1-(5-methylfuran-2-yl)ethan-1-one] | 48.3
14 | O=C1C=CC(=O)N1c1ccc(Oc2ccccc2)cc1 [10-F17, 1-(4-phenoxyphenyl)-2,5-dihydro-1H-pyrrole-2,5-dione] | 73.6
15 | c1ccc(CSSCc2ccccc2)cc1 [10-O21, [(benzyldisulfanyl)methyl]benzene] | 100
16 | C=CC(=O)N1CCCC1c1cccc(C)c1 (centres unmarked) [1-N11, 1-[2-(3-methylphenyl)pyrrolidin-1-yl]prop-2-en-1-one] | 110
17 | O=C(CCl)Nc1sc2c(c1C(=O)c1ccccc1)CCCC2 [4-A06, N-(3-benzoyl-4,5,6,7-tetrahydro-1-benzothiophen-2-yl)-2-chloroacetamide] | 0.213
18 | C=CC(=O)N1CCCC1c1c(C)nn(CC(C)C)c1Cl (centres unmarked) [1-F19, 1-{2-[5-chloro-3-methyl-1-(2-methylpropyl)-1H-pyrazol-4-yl]pyrrolidin-1-yl}prop-2-en-1-one] | 119
19 | CC(Cl)C(=O)N(C)CCn1c(=O)oc2ccccc21 (centres unmarked) [7-H15, 2-chloro-N-methyl-N-[2-(2-oxo-2,3-dihydro-1,3-benzoxazol-3-yl)ethyl]propanamide] | 102

Row | SMILES | viability at 48 h, 25 µM [%]
20 | Cc1cc(NC(=O)CCl)n(-c2ccccc2)n1 [4-G05, 2-chloro-N-(3-methyl-1-phenyl-1H-pyrazol-5-yl)acetamide] | 0.983
21 | CC(Cl)C(=O)N1CCC(N(C)Cc2cc(=O)[nH]c(N(C)C)n2)C1 (centres unmarked) [7-E18, 6-({[1-(2-chloropropanoyl)pyrrolidin-3-yl](methyl)amino}methyl)-2-(dimethylamino)-3,4-dihydropyrimidin-4-one] | 72.3
22 | C=CC(=O)N1CCC(NC(=O)c2oc(C)cc2C)CC1 [2-K17, 3,5-dimethyl-N-[1-(prop-2-enoyl)piperidin-4-yl]furan-2-carboxamide] | 79.7
23 | C=CC(=O)Nc1ccc(C(=O)N[C@@H]2CCN(C(C)=O)C2)cc1 [2-F20, N-[(3R)-1-acetylpyrrolidin-3-yl]-4-(prop-2-enamido)benzamide] | 73.4
24 | COC(=O)[C@H]1[C@@H](C(=O)CCl)C1(C)C (racemic) [10-A11, rac-methyl (1R,3S)-3-(2-chloroacetyl)-2,2-dimethylcyclopropane-1-carboxylate] | 74.8
25 | COc1cccc(NC(=O)C(C)Cl)c1 (centres unmarked) [6-I03, 2-chloro-N-(3-methoxyphenyl)propanamide] | 105
26 | Cc1cc(C)c(NC(=O)C(C#N)=Cc2cc(F)ccc2F)c(C)c1 [8-A10, 2-cyano-3-(2,5-difluorophenyl)-N-(2,4,6-trimethylphenyl)prop-2-enamide] | 2.85
27 | C=CC(=O)NCc1ccc(C(=O)NC2CC(=O)N(C)C2)cc1 (centres unmarked) [3-N22, N-(1-methyl-5-oxopyrrolidin-3-yl)-4-[(prop-2-enamido)methyl]benzamide] | 81.2
28 | CCOC(=O)c1c(C)[nH]c(C(=O)C(C)Cl)c1C (centres unmarked) [10-B22, ethyl 5-(2-chloropropanoyl)-2,4-dimethyl-1H-pyrrole-3-carboxylate] | 95.2
29 | Cc1cc(-n2c(C)cc(C(=O)CCl)c2C)no1 [10-C18, 2-chloro-1-[2,5-dimethyl-1-(5-methyl-1,2-oxazol-3-yl)-1H-pyrrol-3-yl]ethan-1-one] | 0.308
30 | C=CC(=O)NCCC1=CCCCCC1 [1-P21, N-[2-(cyclohept-1-en-1-yl)ethyl]prop-2-enamide] | 93.5
31 | O=C(CCl)NCCC1=CCCCC1 [4-H05, 2-chloro-N-[2-(cyclohex-1-en-1-yl)ethyl]acetamide] | 20.9
32 | CC(Cl)C(=O)Nc1ccc(C(C)(C)C)cc1 (centres unmarked) [4-G12, N-(4-tert-butylphenyl)-2-chloropropanamide] | 66.1
33 | C=CC(=O)N1CCC(C(=O)NCC(O)c2cccc(Cl)c2)CC1 (centres unmarked) [3-M06, N-[2-(3-chlorophenyl)-2-hydroxyethyl]-1-(prop-2-enoyl)piperidine-4-carboxamide] | 98.1
34 | CC(Cl)C(=O)N1CCN(c2nc3ccccc3o2)C(C)C1 (centres unmarked) [7-K22, 1-[4-(1,3-benzoxazol-2-yl)-3-methylpiperazin-1-yl]-2-chloropropan-1-one] | 76.1
35 | N#CC(=CC=Cc1ccccc1[N+](=O)[O-])C(N)=O [8-F19, 2-cyano-5-(2-nitrophenyl)penta-2,4-dienamide] | 1.55
36 | N#CC(=Cc1ccccc1OCc1ccccc1)C(=O)NC(N)=O [8-F05, (2-{[2-(benzyloxy)phenyl]methylidene}-2-cyanoacetyl)urea] | 84.9
37 | Cc1cc(C(=O)CCl)c(C)n1-c1ccc(Cl)c(C(F)(F)F)c1 [10-L18, 2-chloro-1-{1-[4-chloro-3-(trifluoromethyl)phenyl]-2,5-dimethyl-1H-pyrrol-3-yl}ethan-1-one] | 0.747
38 | O=C(CCl)NCC1CC(=O)N(c2ccccc2)C1 (centres unmarked) [5-A09, 2-chloro-N-[(5-oxo-1-phenylpyrrolidin-3-yl)methyl]acetamide] | 0.822
